Data on one compound can be found in ChEMBL document CHEMBL4811280, “Discovery of a simplified deguelin analog as an HSP90 C-terminal inhibitor for HER2-positive breast cancer” (Bioorg Med Chem Lett, 2021).

The test system of data set [1] is JIMT-1. Briefly: Antiproliferative activity against trastuzumab-resistant HER2-positive human JIMT-1 cells assessed as reduction in cell viability after 72 hrs by MTS assay. Type of data set: functional, cell-based. The settings on record: dose 0.1-20 µM. A general note: Tetrazolium dyes change colour on reduction, which living cells bring about.
In a further data set the test system is MDA-MB-453. In words: Antiproliferative activity against trastuzumab-resistant human MDA-MB-453 cells assessed as reduction in cell viability after 72 hrs by MTS assay. The data set is classed as functional, cell-based. The following applies: dose 0.1-20 µM.
The subject of data set [2] is BT-474. In words: Antiproliferative activity against trastuzumab-sensitive HER2-positive human BT-474 cells assessed as cell viability at 10 uM after 72 hrs by MTS assay. Type of data set: functional. The following applies: read-out: Activity.
Data set [3] concerns the target T1, Heat shock protein HSP90 (Homo sapiens, UniProt P07900+P08238). In words: Inhibition of HSP90 at C-terminus in trastuzumab-resistant human […] cells assessed as downregulation of Akt protein expression incubated for 72 hrs by Western blot analysis. The data set is classed as cell-based. The settings on record: JIMT-1, dose 2-10 µM. A general note: Immunoblotting shows a protein as a band on a membrane.

Data set [4] addresses T1, Heat shock protein HSP90. Briefly: Inhibition of HSP90 at C-terminus in trastuzumab-resistant human […] cells assessed as downregulation of HER2 protein expression incubated for 72 hrs by Western blot analysis. The following applies: JIMT-1, dose 2-10 µM. Type of data set: cell-based.
Data set [5] has as its target T1, Heat shock protein HSP90. In words: Inhibition of HSP90 at N-terminus in human BT-474 cells assessed as increase in cytosolic HSP90 protein level at 10 uM incubated for 24 hrs by immunostaining analysis. The data set is classed as cell-based. The settings on record: bt-474, 24 h.
Data set [6] deals with JIMT-1. Briefly: Antiproliferative activity against trastuzumab-resistant HER2-positive human JIMT-1 cells assessed as cell viability at 10 uM after 72 hrs by MTS assay. The following applies: read-out: Activity. Type of data set: functional.
In data set [7] the target is T1, Heat shock protein HSP90. In words: Inhibition of HSP90 at N-terminus in human BT-474 cells assessed as increase in nuclear HSF1 protein level at 10 uM incubated for 24 hrs by immunostaining analysis. Type of data set: cell-based. The following applies: bt-474, 24 h.
The next data set has as its system SK-BR-3. In words: Antiproliferative activity against trastuzumab-sensitive human SK-BR-3 cells assessed as reduction in cell viability after 72 hrs by MTS assay. The following applies: dose 0.1-20 µM. The data set is classed as functional, cell-based.
For data set [8], the target named is T1, Heat shock protein HSP90. Briefly: Inhibition of HSP90 at C-terminus in trastuzumab-resistant human […] cells assessed as downregulation of survivin protein expression incubated for 72 hrs by Western blot analysis. The settings on record: JIMT-1, dose 2-10 µM. Type of data set: cell-based.
The target in data set [9] is T1, Heat shock protein HSP90. Briefly: Inhibition of HSP90 at C-terminus in trastuzumab-sensitive human BT-474 cells assessed as downregulation of cyclinD1 protein expression incubated for 72 hrs by Western blot analysis. The data set is classed as cell-based. The settings on record: dose 2-10 µM.
For data set [10], the target named is T1, Heat shock protein HSP90. In words: Inhibition of HSP90 at C-terminus in trastuzumab-sensitive human BT-474 cells assessed as downregulation of survivin protein expression incubated for 72 hrs by Western blot analysis. Type of data set: cell-based. The following applies: dose 2-10 µM.
Data set [11] addresses T1, Heat shock protein HSP90. Briefly: Inhibition of HSP90 at C-terminus in trastuzumab-resistant human […] cells assessed as downregulation of cyclinD1 protein expression incubated for 72 hrs by Western blot analysis. The data set is classed as cell-based. The following applies: JIMT-1, dose 2-10 µM.
The subject of data set [12] is BT-474. Briefly: Antiproliferative activity against trastuzumab-sensitive HER2-positive human BT-474 cells assessed as reduction in cell viability after 72 hrs by MTS assay. The following applies: dose 0.1-20 µM. Type of data set: functional, cell-based.
In data set [13] the target is T1, Heat shock protein HSP90. In words: Inhibition of HSP90 at C-terminus in trastuzumab-sensitive human BT-474 cells assessed as downregulation of HER2 protein expression incubated for 72 hrs by Western blot analysis. The data set is classed as cell-based. The settings on record: dose 2-10 µM.
For data set [14], the target named is T1, Heat shock protein HSP90. In words: Inhibition of HSP90 at C-terminus in trastuzumab-sensitive human BT-474 cells assessed as downregulation of Akt protein expression incubated for 72 hrs by Western blot analysis. The settings on record: dose 2-10 µM. The data set is classed as cell-based.
Another data set relates to HEK293. Briefly: Cytotoxicity against human HEK293 cells assessed as reduction in cell viability at 10 uM after 72 hrs by MTS assay. The data set is classed as cell-based. The following applies: hek293, 72 h.

Take `COc1cc2c(C(OC(=O)C3CC3)c3ccc4c(c3OC)C=CC(C)(C)O4)ccnc2cc1OCCCN1CCN(C)CC1` (configuration not stated): the Activity result with JIMT-1 [1] is “Dose-Dependent Effect”; in the data set on MDA-MB-453, “Dose-Dependent Effect”; in the data set on SK-BR-3, “Dose-Dependent Effect”; in the data set on BT-474 [12], “Dose-Dependent Effect”; in the data set on HEK293, “Toxic”. The viability at 10 µM with BT-474 [2] and in the data set on JIMT-1 [6] was < 20% each time. In addition, the inhibition entry at Heat shock protein HSP90 [3], on Heat shock protein HSP90 [4], on Heat shock protein HSP90 [8], on Heat shock protein HSP90 [9], on Heat shock protein HSP90 [10] and at Heat shock protein HSP90 [11] was “Dose-Dependent Effect” in each case. Besides, the inhibition result at Heat shock protein HSP90 [13] and at Heat shock protein HSP90 [14] was “Dose-Dependent Effect” each time. In addition, the “inhibition (INH)” value at Heat shock protein HSP90 [5] and on Heat shock protein HSP90 [7] was “Not Active” in each case.
